Consider two compounds from patent publication US6680025B2, “Device and method for photoactivation” (Cerus Corporation, priority 1989, dated 2004).

Molecules are shown by their SMILES.

Test [1] deals with calf thymus DNA. Put plainly: Binding of photoproduct to nucleic acid (dark reaction after pre-irradiation). On the procedure: The nucleic acid binding properties of photoproduct were investigated with calf thymus DNA. 200 μg/ml of ^3H-AMDMIP (1×10^5 CPM/ml) in Taq buffer was irradiated at room temperature with either the CE-III device or the PTI device. This irradiation was performed for 15 minutes in the absence of nucleic acid. Following the irradiations, 200 μl of the irradiated solution was mixed with 200 μl of 1000 μg/ml DNA solution in Taq buffer. Several identical samples were prepared in this manner. One set of samples was allowed to react with the DNA for 2 hours at room temperature. The other set of samples was subjected to 30 cycles of heating and cooling by placing the samples in a thermal cycler [Perkin-Elmer Cetus DNA Thermal Cycler (Part No. N8010150); each cycle involved 93° C. for 30 seconds, 55° C. for 30 seconds and 72° C. for 1 minute]. When the DNA reactions were complete, all samples were analyzed for DNA-associated tritium counts (CPM) by following the flow chart outlined in FIG. 17.
The DNA-associated counts are given in terms of adducts per 100 base pairs in Table 10. For calculation purposes, these adducts are reported as if they represented monomers of AMDMIP. Regardless of the accuracy of this approximation, the process of irradiating ^3H-AMDMIP clearly results in a tritiated product which associates (i.e. binds) with DNA in the absence of subsequent activating wavelengths of electromagnetic radiation. The extent of the association is shown in Table 10 to depend upon the reaction conditions.

The test system of test [2] is HIV 115-mer. Put plainly: Effect of unirradiated isopsoralen on PCR. Conditions: for Counts (CPM) of PCR product: 30 cycles, 0 μg/ml gave 42200. The format is biochemical. On the procedure:
To systematically evaluate the effect of the presence of increasing concentrations of isopsoralen on PCR, AMDMIP (0, 100, 200, 400 μg/ml) was added to 107 copies of HIV 115-mer as template. PCR was then carried out for 30 cycles in the presence of α-^32P-dCTP. The PCR product was run on denaturing polyacrylamide gel and autoradiographed. The bands were thereafter cut and counted.

In test [3] the test system is HIV 115-mer PCR product carryover. The test can be described thus: Post-amplification sterilization, isopsoralen added after amplification (Example 54). The format is biochemical. Conditions: for sterilization of carryover: AMDMIP 100 μg/ml, PTI 15 minutes, 10^6 copies. The text has this:
In this embodiment, the method of sterilization comprises: 1) providing PCR reagents, 2) providing template, 3) providing polymerase, 4) mixing PCR reagents, template, and polymerase to initiate PCR, 5) cycling to provide PCR product, 6) providing isopsoralen, 7) adding isopsoralen to PCR product, and 8) irradiating PCR product.
For the purposes of this determination, the steps of the following experiment include (see FIG. 40): a) preparing template, b) providing template, c) providing PCR reagents, d) providing polymerase, e) mixing PCR reagents, template, and polymerase to initiate PCR, f) cycling to provide PCR product, g) carrying over of PCR product into new tubes, h) providing isopsoralen, i) adding isopsoralen to the carryover, j) irradiating, k) addition of new PCR reagents, and 1) subsequent PCR.
Steps a), b), c), d), e), and f). PCR product was provided as described earlier.
Step g) Carrying over of PCR product. Aliquots of PCR product were added into new reaction tubes at 10^6 copies per tube.
Step h) Providing Isopsoralen. AMDMIP was synthesized as described and diluted.
Step i) Addition of Isopsoralen ANDDMIP (100 μg/ml, approximately 10^−4 M) was added reaction vessels containing carryover.
Step i) Irradiation. Irradiation was performed on the PTI device to avoid photoproduct. Three of the new reaction tubes were irradiated while the others were left unirradiated as controls. Irradiation was for 15 minutes at RT as above.
Step k) PCR Reagents and Tag Polymerase Were Added to Appropriate Concentrations. The final volume was increased two fold such that AMDMIP photoproducts were at 50 μg/ml.
Step l) Subsequent PCR. Amplification was performed, in closed reaction vessels using primer pair SK-38/39 for 20, 25 or 30 cycles, using the temperature profile for cycling described above in the presence of α-^32P-dCTP.

Test [4] concerns Molt-4 human genomic DNA (human beta globin gene). The test can be described thus: Sterilization of genomic target before PCR (beta globin 174 bp). The format is biochemical. As for the experimental part:
Four samples containing 1 μg of Molt-4 human genomic DNA target were prepared for PCR with primers KM 29 (5′-[…]) and HRI-12 (5′-[…]). These primers give a 174 bp product within the human beta globin gene. All four samples contained AMDMIP at 100 μg/ml, and were irradiated for 0, 5, 10 or 15 minutes prior to PCR amplification. […] Amplification were carried out in 1×Taq buffer (50 mM KCl, 10 mM Tris pH 8.5, 2.5 mM MgCl2, 200 μg/ml gelatin), 175 μM each dNTP, 20 μM primer with 2.5 units of Taq polymerase and 100 μg/ml AMDMIP present during amplification. PCR was carried out for 30 cycles; one cycle=30 sec at 94° C. (denaturing), 30 sec at 55° C. (primer annealing), and 60 sec at 72° C. (extension). α-[…] was used as an internal label. After amplification, the samples were analyzed for product by PAGE followed by autoradiography.

Test [5] relates to human placental DNA. Put plainly: PCR in presence of AMDMIP and DMSO co-solvent. Format: biochemical. Conditions: AMDMIP 200 μg/ml. On the procedure: In this example, the effect of DMSO on PCR amplification in the presence of high concentrations of sterilizing compound (AMDMIP) was investigated. Samples were prepared for PCR which contained 1 μg of human placental DNA either with or without (unirradiated) AMDMIP (200 μg/ml). The samples were amplified 30 cycles under standard PCR conditions in the presence of 0%, 1%, 5% or 10% DMSO. The reaction mix contained α-^32P-dCTP. Following amplification, the samples were analyzed by PAGE (data not shown).

The subject of test [6] is E. coli polymerase I. The settings on record: nick-translating a double-stranded template; cited from earlier work.

With `Cc1oc2ccc3c(C)cc(=O)oc3c2c1CN` [AMDMIP, 4′-Aminomethyl-4,5′-dimethylisopsoralen], the “ADDUCTS PER 1000 BASE PAIRS” value in test [1] (device CE-II, pre-irradiated 15 mins. without nucleic acid, dark reaction room temp.) is listed as 4.4; in test [1] (device CE-III, pre-irradiated 15 mins. without nucleic acid, dark reaction thermally cycled), 24.3; in test [1] (device PTI, pre-irradiated 15 mins. without nucleic acid, dark reaction thermally cycled), 5.7; in test [1] (no irradiation, dark reaction room temp. 2 hours), 1.1; in test [1] (no irradiation, dark reaction thermally cycled 30 cycles), 0.9. In addition, in test [2] (HIV 115-mer system), the “concentration compatible with the PCR system” value is on record as “up to 400 μg/ml”. Besides, the “Counts (CPM) of PCR product” value in test [2] (unirradiated AMDMIP 100 μg/ml) stood at 77200 CPM; in test [2] (unirradiated AMDMIP 200 μg/ml), 77500 CPM; in test [2] (unirradiated AMDMIP 400 μg/ml) it was 69400 CPM. Moreover, the “reamplification of carryover with AMDMIP, not light-treated” value in test [3] (20, 25, 30 cycles) was “show amplification”. For the same compound, the results for the sterilization of carryover entry in test [3] (20 cycles), in test [3] (25 cycles) and in test [3] (30 cycles) were “sterilization appears to be complete”, “reduced relative to controls” and “no significant sterilization is observed”, respectively. In addition, the “impact of unirradiated AMDMIP on amplification” value in test [4] (100 μg/ml (data not shown)) is “no significant impact on amplification”. For the same compound, the “amplification of genomic target irradiated in presence of AMDMIP” value in test [4] (AMDMIP 100 μg/ml, irradiated 0, 5, 10 or 15 minutes before PCR, 30 cycles) was “no amplification of the sterilized genomic target”. In addition, the “product band CPM” value in test [5] (0% DMSO) is on record as 2500 CPM; in test [5] (1% DMSO) it was 2800 CPM; in test [5] (5% DMSO), 86,000 CPM; in test [5] (10% DMSO), 102,000 CPM. The “amplification in presence of unirradiated AMDMIP” value in test [5] (no DMSO, 30 cycles) is reported as “virtually no detectable amplification product”.

On to `Cc1cc2occc2c2oc(=O)ccc12` [MIP, 5-Methylisopsoralen], for which, in test [6], the “inhibition of polymerase by covalently bound monoadducts” value was “not inhibited”.
